What was measured:
5-HT5A = 5-HT5A (Homo sapiens, UniProt P47898); experiment: Radioligand binding assay, 5-HT5A ([3H]-LSD); conditions: Table 3, unit inferred; 3.5 nM [3H]-LSD
Protocol: Their functional activity was also evaluated by assessing their ability to inhibit agonist-induced cAMP production in HEK293 cells (Table 3). Extended radioisotope tests were aimed at detecting potential affinity for other aminergic receptors, whose role in cancer treatment may be important. Functions were tested for all receptors. The essence of functional tests results from the fact that serotonin stimulates tumor progression. Therefore, the ligand should have the potential to reduce its concentration, i.e., act as an antagonist.[39]
The detailed procedure is presented in previous publications.[53] Assays were performed by incubating for 1 h at 37 °C (room temperature for 5-HT1A) in 200 μL volumes on 96-well plates. The reaction was terminated by rapid filtration using Unifilter plates, and radioactivity on the filters was measured with a PerkinElmer Microbeta plate reader. Radioligands used were:
Eight concentrations (10^–4 to 10^–11 M) were tested in triplicate for each compound. Inhibition constants (Ki) were calculated using the Cheng–Prusoff equation.[54] The results are expressed as the means of at least two independent experiments.

[1] = Lipophilicity, chromatographic hydrophobicity index on C18 (Valko protocol); format: physicochemical
Protocol: Lipophilicity and affinity for phospholipids for each investigated molecule were assessed. Additionally, selected compounds with the highest biological activities have been characterized by their affinity plasma proteins. All experiments were performed using protocols developed by Valko.[35] These methods facilitated the calculation of chromatographic hydrophobicity indices (CHI) and plasma protein binding percentages (%PPB) in a biochromatographic experiment, with results compared to the reference. A detailed description of the experiments is provided in the Supporting Information (SI), along with the raw data. […] Although high lipophilicity may limit the medical use of the analyzed compounds since they may tend to accumulate excessively in the human body, it is remarkable that several clinically used drugs also have high lipophilicity. […] (Table 5).
The detailed procedure is presented in previous publications.[53] High-performance liquid chromatography (HPLC) analyses were conducted using the Prominence-1 LC-2030C 3D system (Shimadzu) with a DAD detector, employing three different chromatographic columns with specific stationary phases and mobile phases. The analysis was performed at 30 °C with a flow rate of 1.5 mL/min for IAM and C18 columns, and 0.9 mL/min for the Chiralpak column. Calibration standards for the columns were sourced from various suppliers and dissolved in dimethyl sulfoxide. Detection occurred in the UV range (190–300 nm) with a 5 μL injection volume. Each compound was analyzed in triplicate. Retention times for the tested compounds and calibration standards are provided in the Supporting Information (Tables S1 and S2).

Danio rerio [2] = experiment: Fish embryo toxicity test (OECD 236); format: in vivo; conditions: Danio rerio embryos, 96 h of exposure
Protocol: Two compounds, PP 10 and PP 15, were tested for cardiotoxicity in the Danio rerio experimental model (OECD 236 test). […] To assess potential neurotoxic effects, locomotor activity was examined in the Danio rerio model. Zebrafish larvae’s response to light and dark transitions serves as a useful method for detecting neurotoxicity. […] In our experiment, we switched from light to dark conditions, as zebrafish larvae are known to avoid light and seek darker areas. This behavior helps them evade predators and maintain ideal environmental conditions.
Figure 4 A: Toxicity of PP 10 and PP 15in vivo in the Danio reiro embryo toxicity test. […] Cardiotoxicity of compounds B: PP 10 and C: PP 15 was evaluated by measuring the heart rate (beats per minute) in 5-dpf Danio rerio larvae, maintained in the E3 fish embryo growth medium. Statistical analysis was performed using GraphPad Prism 10.0.0, with one-way ANOVA followed by Dunnett’s comparison test (*p < 0.05, compared to the negative control E3).
The toxicity of compounds was evaluated using two tests: the fish embryo toxicity (FET) test and neurotoxicity assessment.[53] […] Acute toxicity was assessed by monitoring signs such as coagulation of fertilized eggs, somite formation absence, tailbud separation, and lack of heartbeat. The LD50 value was calculated, and cardiovascular effects were monitored through heartbeat observations.

[3] = test system: Feline catus astrocyte (PG-4); experiment: Cytotoxicity, PG-4 astrocytes; format: cell-based; conditions: Felis catus; normal astrocyte line
Protocol: The chosen group of ligands was further examined for their ability to inhibit proliferation across multiple cancer cell lines related to the CNS system (1321N1, U87MG, LN-229, and U-251). These cell lines were characterized by different mutation profiles, the main one being the variable status of the p53 protein. In detail, U87MG cells have a wild-type p53 protein, while astrocytoma and the rest of GBM cells harbor mutated p53 protein. Additional assays were performed on MCF7 breast cancer and AsPC-1 pancreatic cancer cells. The wide range of tested lines was aimed at screening the anticancer potential of the tested compounds. The first represents one of the most common and the second one of the most aggressive cancers in the world. Comparing the activity of compounds on GBM cells to other types of cancer may reveal their selectivity and usefulness in targeted therapies. The cytotoxicity of the compounds on normal human astrocytes (NHA) and Feline catus astrocyte (PG-4) was determined. Tests on normal lines serve to verify the potential toxicity of the tested compounds on healthy cells. Due to the targeting of CNS tumors, astrocytes were selected as normal lines.

Danio rerio [4] = conditions: in vivo
Protocol: Two compounds, PP 10 and PP 15, were tested for cardiotoxicity in the Danio rerio experimental model (OECD 236 test). […]. To assess potential neurotoxic effects, locomotor activity was examined in the Danio rerio model. Zebrafish larvae’s response to light and dark transitions serves as a useful method for detecting neurotoxicity. […] In our experiment, we switched from light to dark conditions, as zebrafish larvae are known to avoid light and seek darker areas. This behavior helps them evade predators and maintain ideal environmental conditions. […]
Figure 5 A: In vivo toxicity assessment of PP 10 and PP 15 in Danio rerio using the maximum tolerated concentration (MTC) toxicity test. B: Locomotor activity under light conditions, quantified as the distance (in cm) traveled per minute by 5-day postfertilization (dpf) Danio rerio larvae. C: Locomotor activity under dark conditions, with the distance (in cm) traveled per minute recorded for 5-dpf larvae. D: Comparison of activity during the transition from light to dark conditions. E3 refers to the fish embryo growth medium. […]
A locomotor activity test was conducted on zebrafish larvae ([…]). […] The distance traveled by the larvae was measured in both light and dark conditions using EthoVision XT15 software, and the mean distance per minute was calculated for each condition to assess locomotor activity. […]

CYP3A4 = molecular target: T1, CYP3A4 (Homo sapiens, UniProt P08684); experiment: P450-Glo assay, CYP3A4; format: in vitro ADME
T1 construct: purchased Promega
T1 sequence (P08684 whole entry): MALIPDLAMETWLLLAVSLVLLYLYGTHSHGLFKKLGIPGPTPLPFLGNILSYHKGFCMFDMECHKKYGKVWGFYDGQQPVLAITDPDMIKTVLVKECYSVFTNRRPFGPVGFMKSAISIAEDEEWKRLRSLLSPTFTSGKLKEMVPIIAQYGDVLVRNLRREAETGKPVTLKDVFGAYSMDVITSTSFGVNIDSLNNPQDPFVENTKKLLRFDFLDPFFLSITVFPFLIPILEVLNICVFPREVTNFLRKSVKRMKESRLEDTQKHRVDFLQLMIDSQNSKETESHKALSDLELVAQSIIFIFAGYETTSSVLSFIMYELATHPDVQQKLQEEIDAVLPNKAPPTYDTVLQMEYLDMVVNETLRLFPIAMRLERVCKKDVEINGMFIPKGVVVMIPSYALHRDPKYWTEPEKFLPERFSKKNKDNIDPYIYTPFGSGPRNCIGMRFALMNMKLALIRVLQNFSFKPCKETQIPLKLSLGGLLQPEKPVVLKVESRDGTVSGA
Excerpt: In order to evaluate excretion, we examined the effect on the activity of two cytochrome P-450 isoforms. Inhibition of their activity may lead to the occurrence of drug–drug interactions.

Chain of 5-HT5A (P47898 whole entry, species assumed): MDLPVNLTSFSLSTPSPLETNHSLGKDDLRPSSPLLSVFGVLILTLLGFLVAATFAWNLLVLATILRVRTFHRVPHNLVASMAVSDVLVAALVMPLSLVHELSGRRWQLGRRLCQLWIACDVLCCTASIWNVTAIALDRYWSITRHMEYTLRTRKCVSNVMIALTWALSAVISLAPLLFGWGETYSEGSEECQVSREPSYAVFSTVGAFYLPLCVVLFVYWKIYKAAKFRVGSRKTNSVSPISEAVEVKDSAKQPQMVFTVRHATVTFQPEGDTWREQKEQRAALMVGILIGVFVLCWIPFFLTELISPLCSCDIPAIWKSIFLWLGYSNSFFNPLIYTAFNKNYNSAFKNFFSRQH

SMILES	Ki (5-HT5A) [nM]	CHI C18 pH 2.6 [1]	CHI C18 pH 7.4 [1]	CHI C18 pH 10.5 [1]	LD50 / LC50 (Figure 4) (Danio rerio [2]) [µg/mL]	IC50 [3] [nM]	neurotoxic effects (locomotor activity, light to dark) (Danio rerio [4])	impact on the activity of CYP3A4 (CYP3A4)
O=S(=O)(c1cccc2ccccc12)N1CCN(CCNC2=Nc3ccccc3CN2)CC1 [PP 6, N-{2-[4-(Naphthalene-1-sulfonyl)piperazin-1-yl]ethyl}-3,4-dihydroquinazolin-2-amine]	328	92.9	101.5	138.2				
CC1NC(NCCCCCCNS(=O)(=O)c2cccc3ccccc23)=Nc2ccccc21 (centres unmarked) [PP 10, N-{6-[(4-Methyl-3,4-dihydroquinazolin-2-yl)amino]hexyl}naphthalene-1-sulfonamide]	59	89.8	99.7	120.4	15.34	> 25000	minimal neurotoxic effects	weakest interaction
CC1NC(NCCCCCCNS(=O)(=O)c2c(Cl)ccc3ccccc23)=Nc2ccccc21 (centres unmarked) [PP 13, 2-Chloro-N-{6-[(4-methyl-3,4-dihydroquinazolin-2-yl)amino]hexyl}naphthalene-1-sulfonamide]		115.8	105.7	128.8				
O=S(=O)(NCCCCCCNc1ncc2ccccc2n1)c1cccc2ccccc12 [PP 15, N-{6-[(Quinazolin-2-yl)amino]hexyl}naphthalene-1-sulfonamide]	1090	99	104.4	107.2	2.147	> 25000	minimal neurotoxic effects	passive
O=S1(=O)c2cccc3cccc(c23)N1CCCCCCNC1=Nc2ccccc2CN1 [PP 24, 3-{6-[(3,4-Dihydroquinazolin-2-yl)amino]hexyl}-2λ^6-thia-3-azatricyclo[6.3.1.0^4,^12]dodeca-1(11),4(12),5,7,9-pentaene-2,2-dione]		84.7	103.2	127				

— PMC11866022, “Long-Chain Cyclic Arylguanidines as Multifunctional Serotonin Receptor Ligands with Antiproliferative Activity” (ACS Omega, 2025)
